{"source": "patent US8771687B2", "about": "“Methods for treating a tumor using an antibody that specifically binds GRP94” (University of Pittsburgh—Of the Commonwealth System of …, priority 2010, dated 2014)", "key": {"[1]": {"tested_on": "GRP94 expression by M21 melanoma cell line", "test": "Effect of BRAF-I on GRP94 expression, staining with mAb W9, flow cytometry", "type": "cell-based, human", "details": "M21 cells, 1 μM of PLX4720, 14 days, vs untreated cells", "method": "Effect of BRAF-I on GRP94 expression by M21 melanoma cell line. Cells (2×10^5/ml) were incubated in RPMI 1640 medium containing 10% FCS with 1 μM of BRAF-I for 14 days. […] Untreated cells were used as control. Percentage of stained cells and mean fluorescence intensity (MFI) are indicated.\nM21 cells were cultured in RPMI 1640 medium supplemented with 10% FBS and 1 μM of PLX4720. Cells were harvested after 14 days of culture, and washed twice with PBS-BSA. Cells (1×10^5/sample), and were stained with 1 μg of anti-GRP94 mAb W9. Human IgG (HIg) and untreated cells were used as controls. Following an incubation of 30 min at 4° C., cells were washed three times with PBS containing 2% of BSA (PBS-BSA). Cells were then incubated with an appropriate dilution of PE-conjugated anti-human IgG for 30 min at 4° C. Cells were washed and fixed with 2% PFA. Immunofluorescence was measured using a Cyan cytofluorimeter.\nM21 cells were cultured in RPMI 1640 medium supplemented with 10% FBS and 1 μM of PLX4720. Cells were harvested after 14 days of culture, and washed twice with PBS-BSA. Cells (1×10^5/sample), and were stained with 1 μg of anti-GRP94 mAb W9. Human IgG (HIg) and untreated cells were used as controls. Following an incubation of 30 min at 4° C., cells were washed three times with PBS containing 2% of BSA (PBS-BSA). […]"}, "[2]": {"tested_on": "V600E mutated melanoma cell lines sensitive to BRAF-I", "test": "Development of secondary resistance on in vitro treatment with increasing doses, MTT assay", "type": "cell-based, human", "details": "increasing doses (2.5-10 μM)", "method": "The cell line M21 (harboring the V600E BRAF missense mutation) (4×10^5/well) was cultured in a 6-well plate containing RPMI 1640 medium supplemented with 10% FBS and 2.5 μM of PLX4720. Medium was changed every 4 days. On the 8th day the concentration of PLX4720 was increased to 5 μM. Cells were cultured under these conditions for 12 days changing the medium every 4 days. Then the concentration of PLX4720 in the medium was increased to 10 μM, and the medium has been changed every 3 days. Cells were cultured until when resistant colonies appeared (around 3 weeks). Cells were tested for resistance to BRAF-I PLX4720 by analyzing their growth in the presence of 10 μM of PLX4720, using the MTT assay."}, "[3]": {"tested_on": "BRAF mutated advanced melanoma", "details": "cited from earlier work"}, "[4]": {"tested_on": "advanced melanoma with the V600E BRAF mutation", "details": "patients with the V600E BRAF mutation, Phase I; cited from earlier work"}}}
{"smiles": "CCCS(=O)(=O)Nc1ccc(F)c(C(=O)c2c[nH]c3ncc(Cl)cc23)c1F", "note": "[PLX4720]", "values": [{"measurement": "expression of GRP94", "setting": "[1]", "value": "increased expression of GRP94"}, {"measurement": "time of in vitro treatment until cell lines became secondary resistant", "setting": "[2]", "value": "3-4 week"}]}
{"smiles": "CCCS(=O)(=O)Nc1ccc(F)c(C(=O)c2c[nH]c3ncc(-c4ccc(Cl)cc4)cc23)c1F", "note": "[PLX4032, Vemurafenib]", "values": [{"measurement": "response rate", "setting": "[3]; 32 BRAF mutated advanced melanoma patients, phase II study", "value": 70, "unit": "%"}, {"measurement": "median duration of response", "setting": "[3]; patients, secondary resistance", "value": "~8", "unit": "months"}, {"measurement": "tumor regression and overall survival", "setting": "[4]", "value": "effective in promoting tumor regression and increasing overall survival"}]}
